Experimental data published in publication PMC7233170 (Bioorganic chemistry, 2020).
Where two headings read alike, the source gives them in different places.

How the values were obtained:
sEH [1] = target: T1, sEH (Homo sapiens, UniProt P34913); experiment: sEH inhibitory activity; settings: for Inhibition of compounds against sEH, 50 μM (%): compound at 50 μM
T1 sequence (P34913 1-555): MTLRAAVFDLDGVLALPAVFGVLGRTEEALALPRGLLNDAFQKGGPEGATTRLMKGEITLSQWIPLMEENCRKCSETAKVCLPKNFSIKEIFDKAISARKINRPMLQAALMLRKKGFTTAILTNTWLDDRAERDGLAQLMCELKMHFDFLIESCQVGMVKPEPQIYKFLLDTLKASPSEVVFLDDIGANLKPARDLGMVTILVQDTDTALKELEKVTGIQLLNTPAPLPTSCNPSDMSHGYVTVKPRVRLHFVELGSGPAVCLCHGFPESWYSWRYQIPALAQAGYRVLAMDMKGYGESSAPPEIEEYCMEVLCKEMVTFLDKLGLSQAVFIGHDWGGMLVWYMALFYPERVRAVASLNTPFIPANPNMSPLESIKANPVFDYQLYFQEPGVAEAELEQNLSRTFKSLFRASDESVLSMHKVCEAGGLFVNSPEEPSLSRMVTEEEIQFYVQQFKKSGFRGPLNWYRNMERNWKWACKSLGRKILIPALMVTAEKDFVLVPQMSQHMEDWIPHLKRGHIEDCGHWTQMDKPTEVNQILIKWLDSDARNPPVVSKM

sEH [2] = target: T1, sEH; experiment: Inhibitory kinetic analysis
[3] = read-out: Inhibition of compounds against sEH, IC50, PHOME 10 μM, 20 min, 37 °C, pH 7.4
[4] = PHOME 10 μM, 20 min, 37 °C, pH 7.4

| Compound | IC50 (sEH [1]; [3]) [µM] | Inhibition of compounds against sEH, 50 μM (%) (sEH [1]; [4]) | other results |
| --- | --- | --- | --- |
| 16-oxo-11-anhydro alisol A 23,24-acetonide [Compound 11] | 36.3 ± 4 |  |  |
| 25-ethoxy-16-oxo-11-anhydro alisol A [Compound 18] | 31.5 ± 1.4 |  |  |
| 25-methoxy alisol F 23-acetate [Compound 20] | > 50 | 17.63 ± 0.56 |  |
| CC(C)[C@@H](O)C[C@@H](C)C1=C2C[C@H](O)[C@H]3[C@@]4(C)CCC(=O)C(C)(C)[C@@H]4CC[C@]3(C)[C@@]2(C)CC1 [Compound 1, Alismanin B] | 7.15 ± 1.09 | 75.31 ± 2.42 |  |
| C[C@H](C[C@H](O)[C@@H](O)C(C)(C)O)C1=C2C[C@H](O)[C@H]3[C@@]4(C)CCC(=O)C(C)(C)[C@@H]4CC[C@]3(C)[C@@]2(C)CC1 [Compound 2, alisol A] |  |  | IC50 (sEH [1]): > 50 µM; inhibition at 50 µM (sEH [1]; pH 7.4, read-out: Inhibition of compounds against sEH, 50 μM (%)): 27.3 ± 2.81% |
| COC(C[C@@H](C)C1=C2C[C@H](O)[C@H]3[C@@]4(C)CCC(=O)C(C)(C)[C@@H]4CC[C@]3(C)[C@@]2(C)CC1)OC [Compound 3, alismanin D] | 14.8 ± 1.1 | 78.54 ± 1.86 |  |
| C=C(C)[C@@H](O)[C@@H](O)C[C@@H](C)C1=C2CC[C@H]3[C@@]4(C)CCC(=O)C(C)(C)[C@@H]4CC[C@]3(C)[C@@]2(C)CC1 [Compound 4, 11-deoxy-25-anhydro alisol E] | 5.94 ± 0.54 | 71.21 ± 1.56 | Inhibition type (sEH [2]; from Lineweaver-Burk plots): mixed-type competitive; Ki (sEH [2]; inhibition constant from slope plots): 12.6 µM |
| C=C(C)[C@@H](O)[C@@H]1C[C@@H](C)[C@@]2(CC[C@@]3(C)C2=C[C@H](OC)[C@H]2[C@@]4(C)CCC(=O)C(C)(C)[C@@H]4CC[C@@]23C)O1 [Compound 6, alismanin F] | 14.6 ± 1.1 | 71.6 ± 2.12 |  |
| CC(C)(O)C1O[C@](C)(C2=C3C[C@H](O)[C@H]4[C@@]5(C)CCC(=O)C(C)(C)[C@@H]5CC[C@]4(C)[C@@]3(C)CC2=O)CC1O (stereo partly shown) [Compound 7, alismanol O] | > 50 | 24.45 ± 1.03 |  |
| CC(CC(O)C(O)C(C)(C)O)C1=C2C(O)C(O)C3C4(C)CCC(=O)C(C)(C)C4CC(O)C3(C)C2(C)CC1 (stereo not drawn) [Compound 8, 7α,12α-dihydroxyalisol A] | > 50 | 44.42 ± 1.43 |  |
| CC(CC(O)C(=O)C(C)(C)O)C1=C2CC(O)C3C4(C)CCC(=O)C(C)(C)C4CC(O)C3(C)C2(C)CC1 (stereo not drawn) [Compound 10, 7α-hydroxy-24-oxo alisol A] | > 50 | 18.64 ± 0.45 |  |
| C=C(C)[C@H](O)[C@@H](O)C[C@@H](C)C1=C2C=C[C@H]3[C@@]4(C)CCC(=O)C(C)(C)[C@@H]4CC[C@]3(C)[C@@]2(C)CC1=O [Compound 12, alismanol B] | > 50 | 44.97 ± 0.95 |  |
| C[C@@H]1C[C@@H]([C@@H](O)C(C)(C)O)O[C@H]2C[C@@]3(C)C(=C12)CC[C@H]1[C@@]2(C)CCC(=O)C(C)(C)[C@@H]2CC[C@@]13C [Compound 13, 11-deoxy alisol F] | 22.1 ± 1.4 |  |  |
| C[C@@H]1C[C@@H]([C@@H](O)C(C)(C)O)O[C@H]2C[C@@]3(C)C(=C12)C[C@H](O)[C@H]1[C@@]2(C)CCC(=O)C(C)(C)[C@@H]2CC[C@@]13C [Compound 14, alisol F] | > 50 | 18.30 ± 0.35 |  |
| CCOC(C)(C)[C@H](O)[C@@H](O)C[C@@H](C)C1=C2C[C@H](O)[C@H]3[C@@]4(C)CCC(=O)C(C)(C)[C@@H]4CC[C@]3(C)[C@@]2(C)CC1 [Compound 15, 25-O-ethyl alisol A] | 9.57 ± 0.88 | 78.66 ± 2.19 |  |
| C=C(C)[C@H](O)[C@@H]1C[C@@H](C)C2=C3C[C@H](O)[C@H]4[C@@]5(C)CCC(=O)C(C)(C)[C@@H]5CC[C@]4(C)[C@@]3(C)C[C@@H]2O1 [Compound 16, 25-anhydro alisol F] | 21.2 ± 0.5 |  |  |
| COC(=O)C[C@@H](C)C1=C2[C@H](O)C[C@H]3[C@@]4(C)CCC(=O)C(C)(C)[C@@H]4CC[C@]3(C)[C@@]2(C)C[C@@H]1OC [Compound 17, alismanin E] | > 50 | 49.44 ± 1.15 |  |
| CC1(C)O[C@@H]1[C@@H](O)C[C@](C)(O)C1=C2C[C@H](O)[C@H]3[C@@]4(C)CCC(=O)C(C)(C)[C@@H]4CC[C@]3(C)[C@@]2(C)CC1=O [Compound 19, 20-hydroxy alisol C] | 22.2 ± 1 |  |  |
| CC(=O)O[C@H]([C@@H]1C[C@@H](C)C2=C3[C@H](O)C[C@H]4[C@@]5(C)CCC(=O)C(C)(C)[C@@H]5CC[C@]4(C)[C@@]3(C)C[C@@H]2O1)C(C)(C)O [Compound 21, 11-deoxy-12β-hydroxy alisol F 24-acetate] | > 50 | 39.33 ± 0.92 |  |
| C[C@@H]1C[C@@H]([C@@H](O)C(C)(C)O)O[C@H]2C[C@@]3(C)C(=C12)[C@H](O)C[C@H]1[C@@]2(C)CCC(=O)C(C)(C)[C@@H]2CC[C@@]13C [Compound 22, 11-deoxy-12β-hydroxy alisol F] | > 50 | 17.96 ± 0.69 |  |
| COC1CC2(C)C(=C1C(C)CC(O)C(OC(C)=O)C(C)(C)O)C(O)CC1C3(C)CCC(=O)C(C)(C)C3CCC12C (stereo not drawn) [Compound 23, 1-deoxy-12β-hydroxy-16β-methoxy alisol A 24-acetate] | > 50 | 16.27 ± 0.72 |  |
| C=C(C)[C@@H]1OC(C)(C)O[C@H]1C[C@@H](C)C1=C2C[C@H](O)[C@H]3[C@@]4(C)CCC(=O)C(C)(C)[C@@H]4CC[C@]3(C)[C@@]2(C)CC1 [Compound 24, alisol G (23, 24)-diol acetonide] | 14.6 ± 1.6 |  |  |
| CC(=O)O[C@H]([C@@H](O)C[C@@H](C)C1=C2C[C@H](O)[C@H]3[C@@]4(C)CCC(=O)C(C)(C)[C@@H]4CC[C@]3(C)[C@@]2(C)CC1)C(C)(C)O [Compound 25, alisol A 24-acetate] | 21.4 ± 1.7 |  |  |
| alisol B 23-acetate [Compound 9] | > 50 | 37.63 ± 0.86 |  |
